Data as given in patent US20170266186A1, “USE OF INHIBITORS OF BRUTON'S TYROSINE KINASE (BTK)” (Pharmacyclics LLC, priority 2011, published 2017).
Read-outs that look alike come from different tables or passages of the source.

Key:
DHL-6 = test: growth inhibition by PCI-32765, DHL-6; format: cell-based; settings: Homo sapiens; DHL-6, DLBCL, GCB
primary MCL cells [1] = test: co-culture assay: pseudoemperipoliesis of primary MCL cells with M2 stromal cells; format: cell-based, human; settings: 100 nM
DHL-4 = test: growth inhibition by PCI-32765, DHL-4; format: cell-based; settings: Homo sapiens; DHL-4, DLBCL, GCB
primary MCL cells [2] = test: adhesion of primary MCL cells; settings: Homo sapiens, read-out: inhibition of CXCL12 or CXCL13 activated adhesion to VCAM1 and BCR stimulated adhesion to fibronectin
DHL-10 = test: growth inhibition by PCI-32765, DHL-10; format: cell-based; settings: Homo sapiens; DHL-10, DLBCL, GCB
LY3 = test: growth inhibition by PCI-32765, LY3; format: cell-based; settings: Homo sapiens; LY3, DLBCL, ABC (CARD11)
Ramos = test: growth inhibition by PCI-32765, Ramos; format: cell-based; settings: Homo sapiens, Burkitt's
WSU-DLCL2 = test: growth inhibition by PCI-32765, WSU-DLCL2; format: cell-based; settings: Homo sapiens, WSUDLCL2; WSU-DLCL2, FL-transformed
Mino cells [3] = test: adhesion assay, chemokine-mediated, Mino; settings: Homo sapiens, read-out: inhibition of adhesion to VCAM1 or fibronectin following CXCL12 or CXCL13 activations
Jekol and HBL1 cells = test: adhesion assay, anti-IgM stimulated; settings: Homo sapiens, HBL1, read-out: inhibition of anti-IgM stimulated adhesion onto fibronectin or VCAM1
Granta-519 = test: growth inhibition by PCI-32765, Granta-519; format: cell-based; settings: Homo sapiens; Granta-519, Mantle cell
[4] = test system: Mino, Jekol and JVM-1 cells; test: migration assay, CXCL12-induced; settings: Mino and Jekol more sensitive than JVM-1
Mino = test: growth inhibition by PCI-32765, Mino; format: cell-based; settings: Homo sapiens, Mantle cell
[5] = test system: CD19+CD5+ cells of MCL patients; test: flow cytometry phenotyping of PBMCs of MCL patients before (D1) and after one week (D8) of ibrutinib; format: in vivo, human
Procedure: Blood was drawn from MCL patients enrolled in PCYC-04753 or PCYC-1104 studies in the US in accordance with GCP guidelines provided by ICH and principles of the Declaration of Helsinki with informed consent and in compliance with the protocols approved by the relevant Institutional Review Board(s). The whole blood samples were drawn into sodium heparin CPT tubes (BD), mixed for 5 min then spun at 1500 rcf for 20 min at the collection sites. The samples were shipped overnight to Pharmacyclics with 36 hrs. In a laminar flow hood, the PBMCs were removed from the top layer of the tubes, washed with PBS, and frozen in 90% FBS+10% DMSO (Sigma, St Louis, Mo.) in liquid nitrogen until use.
Frozen PBMCs were thawed in a 37° C. water bath, resuspended in RPMI+10% FBS, and recovered in a 37° C., 5% CO2 incubator in 5 ml polypropylene tubes (BD-Falcon) for 2 hours before phenotyping analysis. The PBMCs were washed with PBS+2% FBS, pelleted and resuspended in PBS+2% FBS containing phenotyping surface antibodies. All staining cocktails were run in duplicate tubes. The cells were stained for 30 minutes, washed with PBS, pelleted at 1300 rpm for 5 min, then fixed in PBS+1.6% paraformaldehyde (Electron Microscopy Services, Hatfield, Pa.).
BD FACS Canto II (BD, San Jose, Calif.) was used for all flow cytometry collection. The instrument was maintained according to manufacturer's recommendations. CS&T beads (BD) are used daily for baseline and reproducibility measurements according to manufacturer's instructions. Phosphoflow assays were stained and performed as described. The above antibodies were used with BD CompBead Plus to establish compensation settings and antibody staining consistency. 10,000 CD19^+ cells were collected from each staining sample. The data was analyzed and quantified using FlowJo7.6 (Tree Star, Ashland, Oreg.).

[6] = test system: B cell lymphoma derived cell lines; test: growth inhibition in a subset of B cell lymphoma derived cell lines; format: cell-based; settings: Homo sapiens, read-out: GI50 values, range
[7] = test system: subjects with B-cell malignancies
Text: The dose-escalation portion of this open-label trial enrolled subjects with B-cell malignancies (histologies listed in Table 2, below) and is now completed.

MCL patients = test: ALC and tumor volume (SPD) in MCL patients treated with ibrutinib
[8] = design: species or system human; settings: in vivo
Jekol cells = test: adhesion assay, chemokine-mediated, Jekol; settings: Homo sapiens, read-out: inhibition of adhesion to VCAM1 or fibronectin following CXCL12 or CXCL13 activations
Mino cells [9] = test: actin polymerization in Mino cells (phalloidin); format: cell-based, human; settings: 10 and 100 nM (p<0.001)
[10] = test system: plasma chemokines and cytokines; test: plasma chemokine and cytokine concentrations of ibrutinib treated MCL patients
DB = test: growth inhibition by PCI-32765, DB; format: cell-based; settings: Homo sapiens, DLBCL

C=CC(=O)N1CCC[C@@H](n2nc(-c3ccc(Oc4ccccc4)cc3)c3c(N)ncnc32)C1 [PCI-32765, (R)-1-(3-(4-amino-3-(4-phenoxyphenyl)-1H-pyrazolo[3,4-d]pyrimidin-1-yl)piperidin-1-yl)prop-2-en-1-one]
GI50 (DHL-6): 180 nM
pseudoemperipoliesis of primary MCL (hCD19+ cells) (primary MCL cells [1]): inhibited
GI50 (DHL-4): 530 nM
inhibition at 0.1 µM (primary MCL cells [2]): 10 to 20%
GI50 (DHL-10): 3700 nM
GI50 (LY3): > 10000 nM
GI50 (Ramos): 5500 nM
GI50 (WSU-DLCL2): 500 nM
inhibition at 0.1 µM (Mino cells [3]): 50 to 70%
inhibition at 0.1 µM (Jekol and HBL1 cells): 50 to 70%
GI50 (Granta-519): > 10000 nM
CXCL12-induced migration [4]: dose-dependently inhibited
GI50 (Mino): 150 nM
absolute count and percentage of CD19+CD5+ cells in the lymphocyte population ([5]; after one week of ibrutinib treatment, p<0.05): significantly increased
intracellular Ki67 expression ([5]; after treatment, p<0.05): significantly reduced
pErk expression in CD20+CD5+ cells ([5]; differences not statistically significant): reduced
surface expression of CXCR4 in the CD19+CD5+ population ([5]; following one week of drug treatment, p<0.05): significantly reduced
CD38+ cells among CD19+CD5+ cells ([5]; following treatment, p<0.01): significantly decreased
CD19+CD3− population of gated lymphocytes ([5]; illustrative patient, after one week of treatment, before 9.29%): 63%
CD19+CD5+ population ([5]; illustrative patient, after one week of treatment, before 84.4%): 98.8%
GI50 [6]: 100 to 5500 nM
CR ([7]; DLBCL (7 patients)): 0
ORR (ITT) ([7]; DLBCL (7 patients)): 29%
ORR (evaluable pts) ([7]; DLBCL (7 patients)): 29%
PD ([7]; DLBCL (7 patients)): 4
PR ([7]; DLBCL (7 patients)): 2
CR ([7]; FL (16 patients)): 3
ORR (ITT) ([7]; FL (16 patients)): 38%
ORR (evaluable pts) ([7]; FL (16 patients)): 46%
PD ([7]; FL (16 patients)): 4
PR ([7]; FL (16 patients)): 3
CR ([7]; MCL (9 patients)): 3
PD ([7]; MCL (9 patients)): 1
PR ([7]; MCL (9 patients)): 4
CR ([7]; MZL/MALT (4 patients)): 0
ORR (ITT) ([7]; MZL/MALT (4 patients)): 25%
ORR (evaluable pts) ([7]; MZL/MALT (4 patients)): 33%
PD ([7]; MZL/MALT (4 patients)): 1
PR ([7]; MZL/MALT (4 patients)): 1
ORR (ITT) ([7]; Overall (56 patients)): 54%
PD ([7]; Overall (56 patients)): 10
CR ([7]; WM (4 patients)): 0
PR ([7]; WM (4 patients)): 3
increase in ALC (MCL patients; Phase 2, 560 mg per day, following 2-4 weeks of drug treatment): 100-150%
reduction of tumor volumes (Sum of Perpendicular Diameters, SPD), on average (MCL patients; Phase I, MCL patients (n=9), evaluations following 2, 4 and 6 cycles): 80%
DLTs at the final dose level [8]: No DLTs were observed
dose limiting toxicities (DLTs) documented [8]: Two
inhibition at 0.1 µM (Jekol cells): 20 to 30%
CXCL12-increased cortical actin of Mino cells (Mino cells [9]): dose-dependently and significantly inhibited
reduction of plasma chemokines such as MDC, MIP-1β, and CXCL13 ([10]; after one week of treatment): 40-60%
reduction of IL-10 and TNF-α ([10]; by the end of the first cycle of treatment): 50%
reduction of chemokines MDC, MIP-1β, CXCL13 and CXCL17, on average ([10]; following one week of treatment): more than 50%
GI50 (DB): > 10000 nM
